Where two headings read alike, the source gives them in different places.
Assays:
Assay type in all cases: physicochemical
[1] = Solubility study, visually estimated by dosing solvent aliquots into 10.0 mg API; details: thermodynamic from solid
Method: Solubility was assessed in an array of diverse solvents in order to facilitate the selection of solvent systems and corresponding dosing strategies for the subsequent crystal-form screening experiments. The solubility of Form A of Formula (I) was visually estimated in 12 solvents at RT, and if applicable, at 40° C. by dosing small aliquots of the solvent into a fixed amount of the API (10.0 mg) until the dissolution point or a maximum volume of 1.8 mL was reached.

[2] = Relative stability (ripening) study of crystal forms at various water activity levels
Method: Relative stability studies were conducted at 25° C. to determine thermodynamic crystal stability at various water activity levels ranging from aw=0 to aw=0.94. Both non-solvated forms (Forms A and D) and hydrate forms (Form C and E) were ripened during the study.
Saturated suspensions of the Formula (I) were prepared by stirring excess API in the specified solvent system. The suspension was stirred overnight at 25° C. A clarifying filtration was performed and the filtrate was added to a 2 mL vial containing seeds or small quantities of the relevant forms. The resulting suspensions were stirred at 25° C. for seven days. The solids were isolated, air-dried for 45 minutes, and analyzed by FTIR.

[3] = Particle size distribution after jet milling, laser diffraction dry particle size analyzer; details: crystalline Form A after fluidized bed opposed jet milling
Method: 21.98 kg of crystalline Form A Formula (I) was processed in a fluidized bed opposed jet mill (Model number 100AFG; Hosokawa Micron) at a feed rate of 8 kg/h under nitrogen at 0.6 MPa and 15,000 rpm. After milling, 20.9 kg ([…]) was collected and analyzed by laser diffraction dry particle size analyzer (HELOS&RODOS).

Q: Which solubility ([1]; organic solvent or mixture, DCM, 40° C., read-out: Solubility at 40° C.) does the source give for O=C(O)c1nc2ccccc2n([C@H]2C[C@H]3CCC[C@@H](C2)N3C2CC3CCCC(C3)C2)c1=O (stereo partly shown) [Form A] here?
A: < 6 mg/mL

Q: What about the solubility ([1]; organic solvent or mixture, DCM, RT, read-out: Solubility at RT) of the same compound?
A: < 6 mg/mL

Q: What about the solubility ([1]; organic solvent or mixture, EtOAc, 40° C., read-out: Solubility at 40° C.) of the same compound?
A: < 6 mg/mL

Q: And the solubility ([1]; organic solvent or mixture, EtOAc, RT, read-out: Solubility at RT)?
A: < 6 mg/mL

Q: And the solubility ([1]; organic solvent or mixture, IPA, 40° C., read-out: Solubility at 40° C.)?
A: < 6 mg/mL

Q: And the solubility ([1]; organic solvent or mixture, IPA, RT, read-out: Solubility at RT)?
A: < 6 mg/mL

Q: And the solubility ([1]; organic solvent or mixture, IPA:water (9:1), 40° C., read-out: Solubility at 40° C.)?
A: < 6 mg/mL

Q: What about the solubility ([1]; organic solvent or mixture, IPA:water (9:1), RT, read-out: Solubility at RT) of the same compound?
A: < 6 mg/mL

Q: And the solubility ([1]; organic solvent or mixture, IPE, 40° C., read-out: Solubility at 40° C.)?
A: < 6 mg/mL

Q: And the solubility ([1]; organic solvent or mixture, IPE, RT, read-out: Solubility at RT)?
A: < 6 mg/mL

Q: What about the solubility ([1]; organic solvent or mixture, MTBE, 40° C., read-out: Solubility at 40° C.) of the same compound?
A: < 6 mg/mL

Q: What about the solubility ([1]; organic solvent or mixture, MTBE, RT, read-out: Solubility at RT) of the same compound?
A: < 6 mg/mL

Q: What about the solubility ([1]; organic solvent or mixture, MeCN, 40° C., read-out: Solubility at 40° C.) of the same compound?
A: < 6 mg/mL

Q: What about the solubility ([1]; organic solvent or mixture, MeCN, RT, read-out: Solubility at RT) of the same compound?
A: < 6 mg/mL

Q: What about the solubility ([1]; organic solvent or mixture, MeOH, 40° C., read-out: Solubility at 40° C.) of the same compound?
A: < 7 mg/mL

Q: What about the solubility ([1]; organic solvent or mixture, MeOH, RT, read-out: Solubility at RT) of the same compound?
A: < 7 mg/mL

Q: And the solubility ([1]; organic solvent or mixture, THF, 40° C., read-out: Solubility at 40° C.)?
A: < 6 mg/mL

Q: What about the solubility ([1]; organic solvent or mixture, THF, RT, read-out: Solubility at RT) of the same compound?
A: < 6 mg/mL

Q: And the solubility ([1]; organic solvent or mixture, Toluene, 40° C., read-out: Solubility at 40° C.)?
A: < 7 mg/mL

Q: What about the solubility ([1]; organic solvent or mixture, Toluene, RT, read-out: Solubility at RT) of the same compound?
A: < 7 mg/mL

Q: And the solubility ([1]; Water, 40° C., read-out: Solubility at 40° C.)?
A: < 6 mg/mL

Q: And the solubility ([1]; Water, RT, read-out: Solubility at RT)?
A: < 6 mg/mL

Q: And the “Crystal form remaining after the ripening study” value ([2]; all solvent systems, 25° C., seven days, FTIR)?
A: the only crystal form remaining

Q: What about the “Relative stability among crystalline forms of Formula (I)” value ([2]; confirmed in ripening studies) of the same compound?
A: the most stable crystalline form

Q: Which solubility ([1]; all solvents of Table 3 other than DMSO, organic solvent or mixture, read-out: Solubility (low) in all other solvents evaluated) does the source give for O=C(O)c1nc2ccccc2n([C@H]2C[C@H]3CCC[C@@H](C2)N3C2CC3CCCC(C3)C2)c1=O (stereo partly shown) [Formula (I)] here?
A: ≤ 7 mg/mL

Q: And the solubility ([1]; organic solvent or mixture, DMSO, RT, read-out: Solubility at RT)?
A: 21 to 52 mg/mL

Q: And the D10 [3]?
A: 0.63 μm

Q: What about the D30 [3] of the same compound?
A: 1.36 μm

Q: And the D50 [3]?
A: 2.29 μm

Q: What about the D70 [3] of the same compound?
A: 3.57 μm

Q: What about the D90 [3] of the same compound?
A: 5.8 μm
